Experimental data reported in PubChem BioAssay (NCI).
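Here, GI50 denotes the concentration required for 50% inhibition of growth. TGI: total growth inhibition.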

Legend:
Assay in all cases: NCI tumour cell line growth inhibition, 384-well format
SNB-75 CNS = test system: SNB-75 CNS
MDA-MB-231 breast = test system: MDA-MB-231 breast
NCI-H322M lung = test system: NCI-H322M lung
SF-268 CNS = test system: SF-268 CNS
MOLT-4 leukemia = test system: MOLT-4 leukemia
RXF 393 renal = test system: RXF 393 renal
EKVX NSCLC = test system: EKVX NSCLC
HCC-2998 colon = test system: HCC-2998 colon
SK-MEL-2 melanoma = test system: SK-MEL-2 melanoma
NCI-H460 NSCLC = test system: NCI-H460 NSCLC
BT-549 breast = test system: BT-549 breast
PC-3 prostate = test system: PC-3 prostate
MCF7 breast = test system: MCF7 breast
SF-539 CNS = test system: SF-539 CNS
ACHN renal = test system: ACHN renal
SF-295 CNS = test system: SF-295 CNS
T-47D breast = test system: T-47D breast
KM12 colon = test system: KM12 colon
DU-145 prostate = test system: DU-145 prostate
UACC-62 melanoma = test system: UACC-62 melanoma
HOP-62 NSCLC = test system: HOP-62 NSCLC
HOP-92 NSCLC = test system: HOP-92 NSCLC
SK-MEL-5 melanoma = test system: SK-MEL-5 melanoma
UACC-257 melanoma = test system: UACC-257 melanoma
CAKI-1 renal = test system: CAKI-1 renal
OVCAR-4 ovarian = test system: OVCAR-4 ovarian
SK-OV-3 ovarian = test system: SK-OV-3 ovarian
RPMI-8226 leukemia = test system: RPMI-8226 leukemia
786-0 renal = test system: 786-0 renal
M14 melanoma = test system: M14 melanoma
COLO 205 colon = test system: COLO 205 colon
HCT-15 colon = test system: HCT-15 colon
OVCAR-8 ovarian = test system: OVCAR-8 ovarian
TK-10 renal = test system: TK-10 renal
SNB-19 CNS = test system: SNB-19 CNS
MALME-3M melanoma = test system: MALME-3M melanoma
NCI-H226 lung = test system: NCI-H226 lung
NCI-H23 lung = test system: NCI-H23 lung
MDA-MB-435 melanoma = test system: MDA-MB-435 melanoma
SN12C renal = test system: SN12C renal
A549 NSCLC = test system: A549 NSCLC
SK-MEL-28 melanoma = test system: SK-MEL-28 melanoma
OVCAR-5 ovarian = test system: OVCAR-5 ovarian
NCI/ADR-RES ovarian = test system: NCI/ADR-RES ovarian
HT29 colon = test system: HT29 colon
U251 glioblastoma = test system: U251 glioblastoma
CCRF-CEM leukemia = test system: CCRF-CEM leukemia
SW-620 colon = test system: SW-620 colon
HL-60(TB) leukemia = test system: HL-60(TB) leukemia
MDA-MB-468 breast = test system: MDA-MB-468 breast
SR leukemia = test system: SR leukemia
HS 578T breast = test system: HS 578T breast
IGROV1 ovarian = test system: IGROV1 ovarian
OVCAR-3 ovarian = test system: OVCAR-3 ovarian
NCI-H522 lung = test system: NCI-H522 lung

Q: With `Nc1ccn([C@@H]2S[C@H](CO)[C@@H](O)[C@@H]2F)c(=O)n1` as the compound, how does the GI50 (SNB-75 CNS) read?
A: 54 nM

Q: What about the TGI (SNB-75 CNS) of the same compound?
A: 2680 nM

Q: What about the GI50 (MDA-MB-231 breast) of the same compound?
A: 20.3 nM

Q: And the TGI (MDA-MB-231 breast)?
A: 600 nM

Q: And the GI50 (NCI-H322M lung)?
A: 179 nM

Q: And the TGI (NCI-H322M lung)?
A: 50400 nM

Q: And the GI50 (SF-268 CNS)?
A: 140 nM

Q: And the TGI (SF-268 CNS)?
A: 349 nM

Q: And the GI50 (MOLT-4 leukemia)?
A: < 10 nM

Q: And the GI50 (RXF 393 renal)?
A: 77.4 nM

Q: What about the TGI (RXF 393 renal) of the same compound?
A: 767 nM

Q: And the GI50 (EKVX NSCLC)?
A: 434 nM

Q: What about the TGI (EKVX NSCLC) of the same compound?
A: > 100000 nM

Q: What about the GI50 (HCC-2998 colon) of the same compound?
A: 15.2 nM

Q: And the TGI (HCC-2998 colon)?
A: 255 nM

Q: And the GI50 (SK-MEL-2 melanoma)?
A: 56.5 nM

Q: What about the TGI (SK-MEL-2 melanoma) of the same compound?
A: 201 nM

Q: What about the GI50 (NCI-H460 NSCLC) of the same compound?
A: 24 nM

Q: What about the TGI (NCI-H460 NSCLC) of the same compound?
A: 91 nM

Q: What about the GI50 (BT-549 breast) of the same compound?
A: 22.6 nM

Q: And the TGI (BT-549 breast)?
A: 192 nM

Q: What about the GI50 (PC-3 prostate) of the same compound?
A: 55.9 nM

Q: And the TGI (PC-3 prostate)?
A: > 100000 nM

Q: What about the GI50 (MCF7 breast) of the same compound?
A: 90.9 nM

Q: What about the TGI (MCF7 breast) of the same compound?
A: > 100000 nM

Q: And the GI50 (SF-539 CNS)?
A: 138 nM

Q: And the TGI (SF-539 CNS)?
A: 352 nM

Q: And the GI50 (ACHN renal)?
A: 23.8 nM

Q: What about the TGI (ACHN renal) of the same compound?
A: 56.6 nM

Q: What about the GI50 (SF-295 CNS) of the same compound?
A: 143 nM

Q: And the TGI (SF-295 CNS)?
A: 460 nM

Q: And the GI50 (T-47D breast)?
A: 310 nM

Q: And the TGI (T-47D breast)?
A: 35500 nM

Q: And the GI50 (KM12 colon)?
A: 86.2 nM

Q: What about the TGI (KM12 colon) of the same compound?
A: > 100000 nM

Q: What about the GI50 (DU-145 prostate) of the same compound?
A: 24.3 nM

Q: And the TGI (DU-145 prostate)?
A: 71.2 nM

Q: What about the GI50 (UACC-62 melanoma) of the same compound?
A: 184 nM

Q: And the TGI (UACC-62 melanoma)?
A: 443 nM

Q: What about the GI50 (HOP-62 NSCLC) of the same compound?
A: 14.3 nM

Q: What about the TGI (HOP-62 NSCLC) of the same compound?
A: 54.8 nM

Q: What about the GI50 (HOP-92 NSCLC) of the same compound?
A: 25.2 nM

Q: What about the TGI (HOP-92 NSCLC) of the same compound?
A: 9020 nM

Q: And the GI50 (SK-MEL-5 melanoma)?
A: 53.6 nM

Q: And the TGI (SK-MEL-5 melanoma)?
A: 252 nM

Q: And the GI50 (UACC-257 melanoma)?
A: 318 nM

Q: What about the TGI (UACC-257 melanoma) of the same compound?
A: 7780 nM

Q: What about the GI50 (CAKI-1 renal) of the same compound?
A: 37.3 nM

Q: And the TGI (CAKI-1 renal)?
A: 797 nM

Q: What about the GI50 (OVCAR-4 ovarian) of the same compound?
A: > 100000 nM

Q: What about the TGI (OVCAR-4 ovarian) of the same compound?
A: > 100000 nM

Q: And the GI50 (SK-OV-3 ovarian)?
A: 24.2 nM

Q: And the TGI (SK-OV-3 ovarian)?
A: 182 nM

Q: And the GI50 (RPMI-8226 leukemia)?
A: 194 nM

Q: And the TGI (RPMI-8226 leukemia)?
A: 449 nM

Q: What about the GI50 (786-0 renal) of the same compound?
A: 44.2 nM

Q: What about the TGI (786-0 renal) of the same compound?
A: 319 nM

Q: What about the GI50 (M14 melanoma) of the same compound?
A: 38.7 nM

Q: And the TGI (M14 melanoma)?
A: 163 nM

Q: What about the GI50 (COLO 205 colon) of the same compound?
A: 49.3 nM

Q: What about the TGI (COLO 205 colon) of the same compound?
A: 277 nM

Q: And the GI50 (HCT-15 colon)?
A: 55.7 nM

Q: And the TGI (HCT-15 colon)?
A: > 100000 nM

Q: And the GI50 (OVCAR-8 ovarian)?
A: 13.4 nM

Q: And the TGI (OVCAR-8 ovarian)?
A: 35.2 nM

Q: And the GI50 (TK-10 renal)?
A: > 100000 nM

Q: What about the TGI (TK-10 renal) of the same compound?
A: > 100000 nM

Q: And the GI50 (SNB-19 CNS)?
A: 22.5 nM

Q: What about the TGI (SNB-19 CNS) of the same compound?
A: 387 nM

Q: And the GI50 (MALME-3M melanoma)?
A: < 10 nM

Q: And the TGI (MALME-3M melanoma)?
A: 316 nM

Q: And the GI50 (NCI-H226 lung)?
A: 84.9 nM

Q: And the TGI (NCI-H226 lung)?
A: 320 nM

Q: And the GI50 (NCI-H23 lung)?
A: 23.7 nM

Q: What about the TGI (NCI-H23 lung) of the same compound?
A: 64.5 nM

Q: What about the GI50 (MDA-MB-435 melanoma) of the same compound?
A: 383 nM

Q: What about the TGI (MDA-MB-435 melanoma) of the same compound?
A: > 100000 nM

Q: And the GI50 (SN12C renal)?
A: 23.8 nM

Q: And the TGI (SN12C renal)?
A: 69.5 nM

Q: And the GI50 (A549 NSCLC)?
A: 57.1 nM

Q: And the TGI (A549 NSCLC)?
A: > 100000 nM

Q: And the GI50 (SK-MEL-28 melanoma)?
A: 74.3 nM

Q: And the TGI (SK-MEL-28 melanoma)?
A: 672 nM

Q: And the GI50 (OVCAR-5 ovarian)?
A: 150 nM

Q: What about the GI50 (NCI/ADR-RES ovarian) of the same compound?
A: 16.5 nM

Q: What about the TGI (NCI/ADR-RES ovarian) of the same compound?
A: 48.1 nM

Q: What about the GI50 (HT29 colon) of the same compound?
A: 116 nM

Q: What about the TGI (HT29 colon) of the same compound?
A: 15600 nM

Q: What about the GI50 (U251 glioblastoma) of the same compound?
A: 172 nM

Q: And the TGI (U251 glioblastoma)?
A: 572 nM

Q: And the GI50 (CCRF-CEM leukemia)?
A: < 10 nM

Q: What about the TGI (CCRF-CEM leukemia) of the same compound?
A: 12.2 nM

Q: And the GI50 (SW-620 colon)?
A: 250 nM

Q: What about the TGI (SW-620 colon) of the same compound?
A: > 100000 nM

Q: And the GI50 (HL-60(TB) leukemia)?
A: 20.3 nM

Q: And the TGI (HL-60(TB) leukemia)?
A: 39 nM

Q: And the GI50 (MDA-MB-468 breast)?
A: 61.7 nM

Q: What about the TGI (MDA-MB-468 breast) of the same compound?
A: 624 nM

Q: What about the GI50 (SR leukemia) of the same compound?
A: 139 nM

Q: What about the TGI (SR leukemia) of the same compound?
A: 271 nM

Q: And the GI50 (HS 578T breast)?
A: 53.2 nM

Q: What about the TGI (HS 578T breast) of the same compound?
A: > 100000 nM

Q: What about the GI50 (IGROV1 ovarian) of the same compound?
A: 310 nM

Q: And the TGI (IGROV1 ovarian)?
A: 57500 nM

Q: And the GI50 (OVCAR-3 ovarian)?
A: 47.3 nM

Q: And the TGI (OVCAR-3 ovarian)?
A: 6890 nM

Q: And the GI50 (NCI-H522 lung)?
A: 11.6 nM

Q: And the TGI (NCI-H522 lung)?
A: 95 nM
